Reference: patent US7811797B2, “α-isomaltosylglucosaccharide-forming enzyme, process and uses of the same” (Kabushiki Kaisha Hayashibara Seibutsu Kagaku Kenkyujo, priority 2000, dated 2010)

Legend:
[1] = Amino carbonyl reaction with polypeptone; assay type: physicochemical; conditions: 10% (w/v) with 5% (w/v) polypeptone, 100° C., minus the control
Procedure: Four milliliters of the resulting solution were placed in a glass test tube, sealed, and heated at 100° C. for 30 to 90 min. After allowing to stand for cooling at ambient temperature, each of the resulting solutions was measured for coloration degree to examine on their amino carbonyl reactivity. In parallel, as a control, a solution with only polypeptone was provided and similarly treated as above. The coloration degree was evaluated based on the level of the absorbance, measured in a cell with 1-cm light pass at a wavelength of 480 nm, minus the control.

[2] = system: Eubacterium aerofaciens ATCC 25986; assay: Assimilation test, Eubacterium aerofaciens; assay type: cell-based; conditions: PYF medium with 0.5% saccharide, 37° C., four days, anaerobic
mice = assay: Acute toxicity test, oral administration; assay type: in vivo
Text: Based on this, the LD50 of cyclotetrasaccharide was at least 50 g/kg mouse body weight, though the data were not so accurate.

Amylopsin = target: T1, Amylopsin (Homo sapiens, UniProt P04746)
T1 sequence (P04746 16-511): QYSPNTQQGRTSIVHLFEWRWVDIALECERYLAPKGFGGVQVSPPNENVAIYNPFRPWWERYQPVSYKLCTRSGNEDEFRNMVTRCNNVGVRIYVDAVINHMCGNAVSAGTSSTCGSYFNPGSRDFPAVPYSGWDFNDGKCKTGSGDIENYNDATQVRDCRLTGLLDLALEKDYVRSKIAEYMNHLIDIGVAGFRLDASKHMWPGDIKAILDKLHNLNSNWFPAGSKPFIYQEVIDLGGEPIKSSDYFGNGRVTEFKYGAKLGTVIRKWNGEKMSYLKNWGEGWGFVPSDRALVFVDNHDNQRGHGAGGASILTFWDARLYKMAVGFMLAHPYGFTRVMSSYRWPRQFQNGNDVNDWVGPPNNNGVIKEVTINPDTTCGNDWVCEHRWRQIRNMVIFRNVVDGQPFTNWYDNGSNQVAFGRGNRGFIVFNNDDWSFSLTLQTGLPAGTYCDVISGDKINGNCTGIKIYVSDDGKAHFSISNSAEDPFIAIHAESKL

[3] = system: α-isomaltosylglucosaccharide-forming enzyme; assay: Action on saccharides (substrates), Enzyme of Strain C11; assay type: biochemical, Bacillus globisporus C11; design: key: −: it showed no change; +: it showed a slight reduction of the color spot of the substrate and the formation of other reaction product; ++: it showed a high reduction of the color spot of the substrate and the formation of other reaction product; +++: it showed a substantial disappearance of the substrate spot and the formation of other reaction product; conditions: two units/g substrate, substrate 2% (w/v), 30° C., pH 6.0, 24 hours, TLC
In short: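 Purified enzyme from each strain was added at 2 units/g substrate to each of 24 saccharides at 2% (w/v). Incubation ran 24 h at 30° C, pH 6.0, or pH 8.4 for the A19 enzyme. TLC compared reaction mixtures before and after incubation to show whether each substrate was acted on.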

[4] = system: α-isomaltosylglucosaccharide-forming enzyme; assay: Transfer-acceptor specificity, Enzyme of Strain A19; assay type: biochemical, Arthrobacter globiformis A19; conditions: acceptor 1.6%, PINE-DEX #100 donor 4%, one unit/g donor, 30° C., pH 8.4, 24 hours
In short: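 Each candidate acceptor at 1.6% was combined with 4% partial starch hydrolysate donor and 1 unit/g donor (d.s.b.) of purified enzyme. Incubation ran 24 h at 30 °C, pH 6.0 for the C9, C11 and N75 enzymes and pH 8.4 for A19. Transfer products were detected by GLC for mono- and disaccharide acceptors and HPLC for trisaccharide acceptors.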

Compound	Coloration degree (A480 nm) ([1]; heating time 0 min)	Coloration degree (A480 nm) ([1]; heating time 30 min)	Coloration degree (A480 nm) ([1]; heating time 60 min)	Coloration degree (A480 nm) ([1]; heating time 90 min)	Assimilability [2]	death of mice (mice; highest possible dose)	LD50 (mice; mice, data not so accurate)	Decomposition percentage (%) by digestive enzyme (Amylopsin) [%]	Enzymatic action, Enzyme of Strain C11 [3]	Product of transferring reaction, Enzyme of Stain A19 [4]
OCC1OC2OCC3O[C@H](O[C@H]4C(O)C(CO)OC(OCC5O[C@H](O[C@@H](C1O)C2O)C(O)C(O)[C@@H]5O)C4O)C(O)C(O)[C@@H]3O (stereo partly drawn) [Cyclotetrasaccharide, cyclo{→6)-α-D-glucopyranosyl-(1→3)-α-D-glucopyranosyl-(1→6)-α-D-glucopyranosyl-(1→3)-α-D-glucopyransoyl-(1→}]	0.00	0.00	0.00	0.00	− (judged negative (−) when the post culture had a pH of 6.0 or higher)	did not induce death of mice	at least 50 g/kg mouse body weight	0.0		
OC[C@@H](O)[C@@H](O[C@H]1O[C@H](CO)[C@@H](O)[C@H](O)[C@H]1O)[C@H](O)[C@@H](O)CO [Maltitol, reference compound]									−	++ (a saccharide-transferred product was detected in an amount over ten percent through transfer reaction to acceptor)
